Measured values from US6902881B2, “Compounds and methods for regulating cell differentiation” (priority 2000, dated 2005).

What was measured:
[1] = tested on: CEA content of HT 29 colon cancer cells; experiment: CEA production by HT 29 cells (ELISA/IMx); type: cell-based, human
Description: Expression of differentiation markers. Carcinoembryogenic antigen in cell supernatants collected each three days was assayed by standard ELISA determinations using an IMX assay for quantitative measurement of the antigen. Cellular triacyl glycerol content was measured spectrophotometrically by enzymatic hydrolysis and analysis of the amount of glycerol released using a standard assay, Triglyceride (INT) 10 (Sigma Diagnostics). Cellular alkaline phosphatase activity was determined by measuring the fluorescence change induced by the hydrolysis of 4-methylumbelliferylphosphate. The fluorescence is detected at 450 nm with an excitation of 365 nm, using a Jobin Ivon-Spex Fluoro Max-2 fluorimeter. The alkaline phosphatase activity detected was expressed in units of μmol/mg protein/min.
The effects of biliverdine on cell proliferation and production of two differentiation markers, CEA and alkaline phosphatase activity, were analyzed, CEA was assayed by standard ELISA determinations while alkaline phosphatase activity was determined by measuring the fluorescence change induced by the hydrolysis of phosphate from 4-methylumbelliferylphosphate as follows. To measure CEA production, cell supernatants were collected at the first cycle of change of media (third day) and on day 12. […] This was diluted 1:1 and assayed for CEA using an Imx assay for quantitive measurement of the antigen. […]

B-lymphoblast (LB) cells = experiment: Proliferation of B-lymphoblast cells; type: cell-based, mouse
[2] = tested on: retinoid signaling system (RAR or RXR); experiment: Use of the retinoid signaling system
HT 29 Cancer Cells = experiment: Distribution of cell cycle stages of HT 29 cancer cells; type: cell-based, human
From the text: The presence of the CDK-inhibitors leads to under phosphorylation of Rb protein. As a consequence, the cells are removed from cycling and the number of cells in G1 increases while those in S and G2 decrease, compared with control, untreated ones. This response of cell cycle kinetics is quite similar to those reported for other agents known to cause a G1, block e.g. troglitazone. Ultimately, proliferation ceases within one to three days. […] This decreased rate persists even after the tetrapyrrole is no longer added to the incubation medium. Finally, twelve days after its removal, proliferation resumes at a brisker rate dividing every 41 hrs. This rate is still slower than that of the control cells that double every 18 hrs. […] In contrast, cellular survival or proliferation is not affected by amounts lower than 10^−7 M biliverdin (not shown).

liposarcoma (LS) cells = experiment: Proliferation of liposarcoma cells; type: cell-based, human
[3] = Photo transformation of biliverdin by UV irradiation of embryos (HPLC peak area); type: physicochemical, Xenopus laevis
Description: The cytoplasmic yolk platelet fraction that was photo transformed by UV light was identified in extracts of about 250 embryos irradiated with 366 nm UV light. The chromatogram of irradiated embryo extracts was compared to that of the non-irradiated ones to identify the photo transformed fraction. Once the retention time of the UV sensitive fraction was determined, the parent chemical species was isolated from control egg extracts. To confirm its UV sensitivity, an aliquot of the pertinent HPLC fraction in 44% acetonitrile and 3 mM ammonium acetate, pH 4.5, was irradiated in a cuvette in a Varian-Cary Bio 50 spectrophotometer at 366 nm. The pH was chosen to approximate that of intact yolk platelets. The wavelength was selected on the basis of the absorption spectra of the target fraction. The absorbance change was monitored at 375 nm. […]
After UV irradiation, a set of embryos from each group were collected, dejellied with 2% L-cysteine, 0.16M NaOH and washed extensively in 20% Steimberg's buffer. […] The bilins and retinoids in each batch were extracted, separated and analyzed as described. […] The gross morphological appearance of each individual embryo was evaluated by light microscopy. The developmental teratology characteristic of the “UV syndrome,” was scored by standard criteria and categorized into the five groups comprising the “index of axis deficiency”. […]

## C=CC1=C(C)/C(=C/C2=NC(=C\c3[nH]c(/C=C4\NC(=O)C(C)=C4C=C)c(C)c3CCC(=O)O)/C(CCC(=O)O)=C2C)NC1=O [Biliverdin, biliverdin IXα]
[1]; HT 29, by days 9-12 of exposure, constitutive slightly below 3
  CEA secreted into the medium: over 80 ng/ml/10^6 cells
[1]; HT 29, quiescent proliferative period days 3-40
  overproduction of the differentiation marker CEA: > 25 fold
B-lymphoblast (LB) cells
  time until proliferation ceases: within one day
B-lymphoblast (LB) cells; still exposed
  time until cell division resumes at nearly the control rate: 3 to 4 days
[2]
  use of the retinoid signaling system (RAR or RXR): does not use
HT 29 Cancer Cells; control 11
  cells in G2: 7%
HT 29 Cancer Cells; control 42
  cells in G1: 63%
HT 29 Cancer Cells; control 47
  cells in S: 30%
Liposarcoma (LS) cells
  day after which division resumes at markedly reduced rate: > 3 days
  division slower than control: 3.3 times
  time until proliferation ceases: within one day
[3]; embryos irradiated with 366 nm UV light, typical experiment
  share of the 23.3 min peak area photo transformed by UV irradiation: > 67%
[3]; pre-cleavage embryos exposed to 358 nm for 10 min
  decrease of content after UV irradiation: 50%
